Experimental data taken from patent publication US12134610B2, “Somatostatin subtype-2 receptor (SST2R) targeted therapeutics and uses thereof” (priority 2022, dated 2024).
Where two headings read alike, the source gives them in different places. Starred links: 1 amine or outer side, 2 acyl side, 3 side chain; linkers in the order of their positions; H or OH if unused. Non-standard residues stand in square brackets, D forms with d. Residues, ends and D or L forms follow the SMILES beside them. *: point of attachment. X1 = Cc1cc(F)cc(-c2cnc(NCCNC(=O)CCOCCC(=O)*)c(-c3nc4ccc(Cl)cc4[nH]3)c2N2CCC(N)CC2)c1; X3 = Cc1cc(F)cc(-c2cnc(NCCN*)c(-c3nc4ccc(Cl)cc4[nH]3)c2N2CCC(N)CC2)c1; Dolaproine = CO[C@@H]([C@@H]1CCCN1)[C@@H](C)C(=O)O; Dil = CC[C@H](C)[C@H](NC)[C@@H](CC(=O)O)OC; PABC = O=C(OCc1ccc(N[*:1])cc1)[*:2]; Glutaryl = O=C(CCCC(=O)[*:2])[*:1]; X2 = C[C@@H](N*)[C@@H](O)c1ccccc1; Cya = N[C@@H](CS(=O)(=O)O)C(=O)O; Cit = NC(=O)NCCC[C@H](N)C(=O)O; NMeV = CN[C@H](C(=O)O)C(C)C; Sar = CNCC(=O)O

Legend:
Assay type in all cases: cell-based
[1] = target: T1, human somatostatin receptor subtype 2 (Homo sapiens, UniProt P30874); assay: Functional cAMP assay for SSTR2 agonists (HTRF) in CHO-K1 cells; settings: CHO-K1 cells stably expressing human SST2, 20 min
T1 construct: expressed in transfected cells
How it was run: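 Agonism scored as loss of NKH477 (1.6 μM)-driven cAMP, with IBMX present, after 20 min, 37° C. exposure of stably transfected CHO-K1 cells to compound dilutions (typically 0-10,000 nM). Lysates read by time-resolved FRET; cAMP interpolated from standard curve and EC50 derived.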

SST2 = target: T2, SST2 (Homo sapiens, UniProt P30874); assay: PathHunter CHO-K1 SST2 internalization assay; settings: PathHunter CHO-K1 SST2, 90 min
T2 construct: host or cells: PathHunter CHO-K1 SST2 cells
How it was run: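 IC50 comes from four-parameter curves on background-corrected duplicates of Beta-Glo luminescence, read after 60 min at room temperature in the dark. Before that, CHO-K1 SST2 internalization cells (48 h post-seeding) received SMDC as eleven threefold dilutions, 10 uM highest final, for 90 min at 37 C.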

[2] = system: NCI-H524 (ATCC) human small cell lung cancer cells
How it was run: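 CellTiter-Glo luminescence after a 2 h SMDC pulse (top dose 1 uM, 2-fold dilutions, 11 points), medium wash, then 70 h recovery. Cells were seeded at 5,000/well and dosed 24 h later. % inhibition vs control gave IC50 via four-parameter fit.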

[3] = 2 h treatment, washout, additional 70 h, read-out: H524 EC50

T1 sequence (P30874 whole entry): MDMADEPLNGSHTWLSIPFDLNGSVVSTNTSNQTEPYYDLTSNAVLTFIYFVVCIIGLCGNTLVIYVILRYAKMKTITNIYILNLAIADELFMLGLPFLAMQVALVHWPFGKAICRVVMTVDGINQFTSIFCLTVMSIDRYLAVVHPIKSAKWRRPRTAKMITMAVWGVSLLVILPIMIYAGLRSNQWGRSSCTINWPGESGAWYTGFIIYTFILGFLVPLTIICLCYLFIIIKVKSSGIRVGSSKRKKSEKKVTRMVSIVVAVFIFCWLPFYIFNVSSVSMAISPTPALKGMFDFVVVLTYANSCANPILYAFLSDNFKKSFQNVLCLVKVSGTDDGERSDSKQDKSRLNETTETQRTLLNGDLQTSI
T2 sequence (P30874 whole entry): as above

Structure (SMILES)	EC50 ([1]; read-out: hSST2 cAMP Avg EC50)	EC50 (SST2; read-out: Internalization EC50)	EC50 ([2]; 2 h)	EC50 ([1]; hSST2 cAMP Avg EC50 (nM))	EC50 (SST2; Internalization EC50 (nM))	EC50 [2, 3]
COc1cc2cc(c1Cl)N(C)C(=O)C[C@H](OC(=O)[C@H](C)N(C)C(=O)CCSSCCNC(=O)CCOCCNC(=O)C[C@@H](N)C(=O)NCCNc1ncc(-c3cc(C)cc(F)c3)c(N3CCC(N)CC3)c1-c1nc3ccc(Cl)cc3[nH]1)[C@]1(C)O[C@H]1[C@H](C)[C@@H]1C[C@@](O)(NC(=O)O1)[C@H](OC)/C=C/C=C(\C)C2 [Compound 77]	0.21 nM	5.2 nM	17 nM			
CC[C@@]1(O)C(=O)OCc2c1cc1n(c2=O)Cc2c-1nc1cc(F)c(C)c3c1c2[C@@H](NC(=O)CCOCCC(=O)NCCNc1ncc(-c2cc(C)cc(F)c2)c(N2CCC(N)CC2)c1-c1nc2ccc(Cl)cc2[nH]1)CC3 [Compound 78, N-{2-[4-(4-amino-1-piperidyl)-3-(6-chloro-1H-1,3-benzimidazol-2-yl)-5-(3-fluoro-5-tolyl)-2-pyridylamino]ethyl}3-(2-{N-(10S,23S)-10-ethyl-18-fluoro-10-hydroxy-19-methyl-5,9-dioxo-8-oxa-4,15-diazahexacyclo[14.7.1.0^2,^14.0^4,^13.0^6,^11.0^20,^24]tetracosa-1,6(11),12,14,16,18,20(24)-heptaen-23-ylcarbamoyl}ethoxy)propionamide]				0.23 nM	0.77 nM	170 nM
CC[C@H](C)[C@@H]([C@@H](CC(=O)N1CCC[C@H]1[C@H](OC)[C@@H](C)C(=O)N[C@H](C)[C@@H](O)c1ccccc1)OC)N(C)C(=O)[C@@H](NC(=O)[C@H](C(C)C)N(C)C(=O)OCc1ccc(NC(=O)[C@H](CCCNC(N)=O)NC(=O)[C@@H](NC(=O)CCOCCC(=O)NCCNc2ncc(-c3cc(C)cc(F)c3)c(N3CCC(N)CC3)c2-c2nc3ccc(Cl)cc3[nH]2)C(C)C)cc1C(=O)NCCN)C(C)C [Compound 82]	0.31 nM	6 nM	0.79 nM			
CC[C@H](C)[C@@H]([C@@H](CC(=O)N1CCC[C@H]1[C@H](OC)[C@@H](C)C(=O)N[C@H](C)[C@@H](O)c1ccccc1)OC)N(C)C(=O)[C@@H](NC(=O)[C@H](C(C)C)N(C)C(=O)OCc1ccc(NC(=O)[C@H](CCCNC(N)=O)NC(=O)[C@@H](NC(=O)[C@H](CS(=O)(=O)O)NC(=O)CCOCCC(=O)NCCNc2ncc(-c3cc(C)cc(F)c3)c(N3CCC(N)CC3)c2-c2nc3ccc(Cl)cc3[nH]2)C(C)C)cc1)C(C)C [Compound 83] (X1-[Cya]V[Cit][PABC][NMeV]V[Dil][Dolaproine]-X2)	0.11 nM	2.9 nM	20 nM			
CC[C@H](C)[C@@H]([C@@H](CC(=O)N1CCC[C@H]1[C@H](OC)[C@@H](C)C(=O)N[C@H](C)[C@@H](O)c1ccccc1)OC)N(C)C(=O)[C@@H](NC(=O)[C@H](C(C)C)N(C)C(=O)OCc1ccc(NC(=O)[C@H](CCCNC(N)=O)NC(=O)[C@@H](NC(=O)CCOCCNCCNc2ncc(-c3cc(C)cc(F)c3)c(N3CCC(N)CC3)c2-c2nc3ccc(Cl)cc3[nH]2)C(C)C)cc1)C(C)C [Compound 84]	0.51 nM	9.7 nM	24 nM			
CC[C@H](C)[C@@H]([C@@H](CC(=O)N1CCC[C@H]1[C@H](OC)[C@@H](C)C(=O)N[C@H](C)[C@@H](O)c1ccccc1)OC)N(C)C(=O)[C@@H](NC(=O)[C@H](C(C)C)N(C)C(=O)OCc1ccc(NC(=O)[C@H](C)NC(=O)[C@@H](NC(=O)CCOCCOCCOCCOCCC(=O)NCCNc2ncc(-c3cc(C)cc(F)c3)c(N3CCC(N)CC3)c2-c2nc3ccc(Cl)cc3[nH]2)C(C)C)cc1C(=O)NCCN)C(C)C [Compound 85]	0.25 nM	13 nM	2.2 nM			
CC[C@H](C)[C@@H]([C@@H](CC(=O)N1CCC[C@H]1[C@H](OC)[C@@H](C)C(=O)N[C@H](C)[C@@H](O)c1ccccc1)OC)N(C)C(=O)[C@@H](NC(=O)[C@H](C(C)C)N(C)C(=O)OCc1ccc(NC(=O)[C@H](C)NC(=O)[C@@H](NC(=O)CCOCCC(=O)NCCNc2ncc(-c3cc(C)cc(F)c3)c(N3CCC(N)CC3)c2-c2nc3ccc(Cl)cc3[nH]2)C(C)C)cc1C(=O)NCCN)C(C)C [Compound 86]	0.36 nM	15 nM	1.1 nM			
CC[C@H](C)[C@@H]([C@@H](CC(=O)N1CCC[C@H]1[C@H](OC)[C@@H](C)C(=O)N[C@H](C)[C@@H](O)c1ccccc1)OC)N(C)C(=O)[C@@H](NC(=O)[C@H](C(C)C)N(C)C(=O)OCc1ccc(NC(=O)[C@H](CCCNC(N)=O)NC(=O)[C@@H](CC(=O)CCOCCNCCNc2ncc(-c3cc(C)cc(F)c3)c(N3CCC(N)CC3)c2-c2nc3ccc(Cl)cc3[nH]2)C(C)C)cc1C(=O)NCCN)C(C)C [Compound 87]	0.4 nM	26 nM	42 nM			
CC[C@@]1(O)C(=O)OCc2c1cc1n(c2=O)Cc2c-1nc1cc(F)c(C)c3c1c2[C@@H](NC(=O)OCc1ccc(NC(=O)[C@H](CCCNC(N)=O)NC(=O)[C@@H](NC(=O)CCOCCC(=O)NCCNc2ncc(-c4cc(C)cc(F)c4)c(N4CCC(N)CC4)c2-c2nc4ccc(Cl)cc4[nH]2)C(C)C)cc1)CC3 [Compound 88]				0.3 nM	1.3 nM	55 nM
CC[C@H](C)[C@@H]([C@@H](CC(=O)N1CCC[C@H]1[C@H](OC)[C@@H](C)C(=O)N[C@H](C)[C@@H](O)c1ccccc1)OC)N(C)C(=O)[C@@H](NC(=O)[C@H](C(C)C)N(C)C(=O)OCc1ccc(NC(=O)[C@H](C)NC(=O)[C@@H](NC(=O)CCOCCNCCNc2ncc(-c3cc(C)cc(F)c3)c(N3CCC(N)CC3)c2-c2nc3ccc(Cl)cc3[nH]2)C(C)C)cc1C(=O)NCCN)C(C)C [Compound 89]	0.71 nM	66 nM	60 nM			
CC[C@@]1(O)C(=O)OCc2c1cc1n(c2=O)Cc2c-1nc1cc(F)c(C)c3c1c2[C@@H](NC(=O)OCc1ccc(NC(=O)[C@H](CCCNC(N)=O)NC(=O)[C@@H](NC(=O)CCOCCC(=O)NCCNc2ncc(-c4cc(C)cc(F)c4)c(N4CCC(N)CC4)c2-c2nc4ccc(Cl)cc4[nH]2)C(C)C)cc1C(=O)NCCN)CC3 [Compound 90]				0.22 nM	4.8 nM	71 nM
CC[C@@]1(O)C(=O)OCc2c1cc1n(c2=O)Cc2c-1nc1cc(F)c(C)c3c1c2[C@@H](NC(=O)OCc1ccc(NC(=O)[C@H](CCCNC(N)=O)NC(=O)[C@@H](NC(=O)CCOCCOCCOCCOCCC(=O)NCCNc2ncc(-c4cc(C)cc(F)c4)c(N4CCC(N)CC4)c2-c2nc4ccc(Cl)cc4[nH]2)C(C)C)cc1C(=O)NCCN)CC3 [Compound 91]				0.18 nM	5.6 nM	190 nM
CC[C@H](C)[C@@H]([C@@H](CC(=O)N1CCC[C@H]1[C@H](OC)[C@@H](C)C(=O)N[C@H](C)[C@@H](O)c1ccccc1)OC)N(C)C(=O)[C@@H](NC(=O)[C@H](C(C)C)N(C)C(=O)OCc1ccc(NC(=O)[C@H](CCCNC(N)=O)NC(=O)[C@@H](NC(=O)CCOCCOCCOCCOCCNCCNc2ncc(-c3cc(C)cc(F)c3)c(N3CCC(N)CC3)c2-c2nc3ccc(Cl)cc3[nH]2)C(C)C)cc1)C(C)C [Compound 92]	0.56 nM	27 nM	110 nM			
CC[C@@]1(O)C(=O)OCc2c1cc1n(c2=O)Cc2c-1nc1cc(F)c(C)c3c1c2[C@@H](NC(=O)OCc1ccc(NC(=O)[C@H](CCCNC(N)=O)NC(=O)[C@@H](NC(=O)CN2CCN(CC(=O)O)CCN(CC(=O)NCCOCCOCCOCCOCCC(=O)NCCNc4ncc(-c5cc(C)cc(F)c5)c(N5CCC(N)CC5)c4-c4nc5ccc(Cl)cc5[nH]4)CC2)C(C)C)cc1)CC3 [Compound 93]				0.48 nM	4.5 nM	130 nM
CC[C@@]1(O)C(=O)OCc2c1cc1n(c2=O)Cc2c-1nc1cc(F)c(C)c3c1c2[C@@H](NC(=O)OCc1ccc(NC(=O)[C@H](CCCNC(N)=O)NC(=O)[C@@H](NC(=O)[C@H](CCC(=O)O)NC(=O)CCOCCC(=O)NCCNc2ncc(-c4cc(C)cc(F)c4)c(N4CCC(N)CC4)c2-c2nc4ccc(Cl)cc4[nH]2)C(C)C)cc1C(=O)NCCN)CC3 [Compound 94]				0.16 nM	2.4 nM	260 nM
CC[C@H](C)[C@@H]([C@@H](CC(=O)N1CCC[C@H]1[C@H](OC)[C@@H](C)C(=O)N[C@H](C)[C@@H](O)c1ccccc1)OC)N(C)C(=O)[C@@H](NC(=O)[C@H](C(C)C)N(C)C(=O)OCc1ccc(NC(=O)[C@H](CCCNC(N)=O)NC(=O)[C@@H](NC(=O)CCCC(=O)N(C)CC(=O)NCCNc2ncc(-c3cc(C)cc(F)c3)c(N3CCC(N)CC3)c2-c2nc3ccc(Cl)cc3[nH]2)C(C)C)cc1)C(C)C [Compound 95] ({X3-Sar-Glutaryl}-V[Cit][PABC][NMeV]V[Dil][Dolaproine]-X2)	0.26 nM	2.2 nM	5.1 nM			
